This passage reports Kd results from article PMC8467567, “Selective Targeting of Human and Animal Pathogens of the Helicobacter Genus by Flavodoxin Inhibitors: Efficacy, Synergy, Resistance and Mechanistic Studies” (International Journal of Molecular Sciences, 2021).

The target in assay [1] is T1, Hp-Fld (H. pylori flavodoxin) (Helicobacter pylori, UniProt O25776).
T1 construct: gene fldA; recombinant from pET28a-fldA in E. coli BL21 (DE3); DEAE purification, no tag mentioned; FMN added during lysis, transformed into holoprotein if needed
T1 sequence (O25776 1-164): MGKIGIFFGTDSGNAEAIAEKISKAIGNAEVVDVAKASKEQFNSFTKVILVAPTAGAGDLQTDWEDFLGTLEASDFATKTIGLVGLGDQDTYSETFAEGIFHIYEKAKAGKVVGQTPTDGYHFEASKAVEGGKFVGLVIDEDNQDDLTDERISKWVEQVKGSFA
Nature of the assay: biochemical. On the set-up: isothermal titration calorimetry of compounds binding to recombinant wild-type Hp-Fld, pH 9. As for the experimental part:
Isothermal titration calorimetry (ITC) experiments were carried out in an Auto-iTC200 calorimeter (MicroCal, Malvern-Panalytical, Malvern, UK) in order to characterise the affinity of the wild-type Hp-Fld protein and the different mutants N14A, A55W, V113W, Q115W, T116W, K133A and D142Y for the different compounds. Recombinant Hp-Fld at 10–20 µM concentration in 50 mM EPPS buffer, pH 9 (for IV, IV-a, IV-b, IV-c, rac-IV-j, rac-IV-k and rac-IV-l), or in 50 mM Tris-HCl buffer, pH 9 (for IV-d) was titrated with 120–300 µM ligand solutions in the same buffer, prepared from stock compound solutions in 100% DMSO. At the residual DMSO concentration of 2.5% employed in the working solutions, wild-type flavodoxin has been described to be conformationally stable and biochemically active. Thermodynamic parameters of the binding equilibrium were calculated by non-linear least-squares regression analysis considering a single ligand binding site and using the user-defined fitting routines in the MicroCal LLC ITC module from the Origin 7.0 software (Northampton, MA, USA). Interaction between wild-type Hp-Fld and compounds IV, IV-a, IV-b, IV-c, IV-d, rac-IV-j, rac-IV-k and rac-IV-l was evaluated by ITC (Figure S3 and Table S1).

Assay [2] concerns the target T2, Hp-Fld (H. pylori flavodoxin) (Helicobacter pylori, UniProt O25776, A55W).
T2 construct: gene fldA
Nature of the assay: biochemical. The source says: (§1) isothermal titration calorimetry on Hp-Fld (H. pylori flavodoxin)

Assay [3] addresses T3, Hp-Fld (H. pylori flavodoxin) (Helicobacter pylori, UniProt O25776, D142Y).
T3 construct: gene fldA
Nature of the assay: biochemical.
From the text: as §1

Assay [4] deals with T4, Hp-Fld (H. pylori flavodoxin) (Helicobacter pylori, UniProt O25776, N14A).
T4 construct: gene fldA
Kind of assay: biochemical.
From the text: as §1

Assay [5] deals with T5, Hp-Fld (H. pylori flavodoxin) (Helicobacter pylori, UniProt O25776, T116W).
T5 construct: gene fldA
Nature of the assay: biochemical.
From the text: as §1

For assay [6], the target named is T6, Hp-Fld (H. pylori flavodoxin) (Helicobacter pylori, UniProt O25776, V113W).
T6 construct: gene fldA
Kind of assay: biochemical.
From the text: as §1

For assay [7], the target named is T1, Hp-Fld (H. pylori flavodoxin). Kind of assay: isothermal titration calorimetry. It is filed as binding.

In the case of `O=[N+]([O-])c1ccc(SCc2ccc(OCC(O)CO)cc2)c2nonc12` (racemic) [rac-IV-j, rac-3-(4-(((7-Nitrobenzo[c][1,2,5]oxadiazol-4-yl)thio)methyl)phenoxy)propane-1,2-diol], the Kd in assay [1] is 2330 nM.
For `Nc1ccc(SCc2ccc(OCC(O)CO)cc2)c2nonc12` (racemic) [rac-IV-k, rac-3-(4-(((7-Aminobenzo[c][1,2,5]oxadiazol-4-yl)thio)methyl)phenoxy)propane-1,2-diol], the Kd in assay [1] worked out at 3360 nM.
The same measure, in the same setting: the figure for `Nc1ccc([S+]([O-])Cc2ccc(OCC(O)CO)cc2)c2nonc12` (racemic) [rac-IV-l, rac-3-(4-(((7-Aminobenzo[c][1,2,5]oxadiazol-4-yl)sulfinyl)methyl)phenoxy)propane-1,2-diol] is 1650 nM; for `COc1ccc(CSc2ccc(N)c3nonc23)cc1` [IV-a] it is 5260 nM.
Still for that read-out and setting: then `COc1ccc(C2(C)SCc3cc(C)c(C)cc3CS2)cc1` [IV-b], with 910 nM.
As for `COc1ccc(CSc2cc(Cl)c(N)c3nonc23)cc1` [IV-c], the Kd was found to be 1050 nM in assay [2]; 440 nM in assay [3]; 1760 nM in assay [4]; 1430 nM in assay [5]; 1450 nM in assay [6]; 670 nM in assay [7] (read-out: IV-c / Kd^b).
As to `COc1ccc(C[S+]([O-])c2ccc(N)c3nonc23)cc1` (stereo not drawn) [IV-d], in assay [1], the Kd was determined as 1550 nM.
For the compound `COc1ccc(CSc2ccc([N+](=O)[O-])c3nonc23)cc1` [IV], the Kd in assay [2] came to 2330 nM; in assay [3], 1180 nM; in assay [4] it was 450 nM; in assay [5] it was 1100 nM; in assay [6], 500 nM; in assay [7] (read-out: IV / Kd^b) it was 480 nM.
